Data published in patent US20060111437A1, “Hyperlipemia therapeutic agent” (Kowa Co., Ltd., priority 2004, published 2006).

Test: Effect on blood triglyceride in rats after repeated oral administration
Assay type: in vivo
Conditions: male Wistar rats; orally once a day for 21 days; pitavastatin calcium 10 mg/kg and/or EPA-E 1000 mg/kg; blood taken after fasting for 18 hours since final administration; FIG. 1
Procedure: Male Wistar rats aged 6 weeks (Japan Medical Science Experimental Animal Co., Ltd.) were tested. They were fed in a room maintained in a bright and dark cycle (bright duration by a room light: 7:00 a.m. to 7:00 p.m.) at a temperature of 23±3° C. and a humidity of 55±15% through an experimental duration and allowed to freely take a chow (CE-2; Nippon Clear Co., Ltd.) and city water. Pitavastatin calcium was suspended in a 0.5 mass % aqueous solution of sodium carboxymethyl cellulose (Iwai Kagaku Yakuhin Co., Ltd.) and controlled so that a dose was 2 ml/kg. Pitavastatin calcium contained 9.43 mass % of water, and therefore an amount as 1.1 mass time much as the dose was weighed to correct the practical dose. The suspension was refrigerated (4° C.) in a shaded bottle, and it was prepared every 7 days. EPA-E was taken from Epadel capsule (Dainippon Seiyaku Co., Ltd.) in use, suspended in refined water and controlled so that a dose was 2 ml/kg. […] The differences of multiple groups between the control group and the drug-administered groups were analyzed using Dunnett's multiple comparison test, preceded by Bartlett's analysis of variance.

With `O=C([O-])C[C@H](O)C[C@H](O)/C=C/c1c(C2CC2)nc2ccccc2c1-c1ccc(F)cc1.O=C([O-])C[C@H](O)C[C@H](O)/C=C/c1c(C2CC2)nc2ccccc2c1-c1ccc(F)cc1.[Ca+2]` [pitavastatin calcium] as the compound, how does the “triglyceride concentration in blood” value read?
Its value is “tended to be lowered”.
